The results in this text go back to US20220233556A1, “COMPOSITIONS AND METHODS FOR TREATING OPHTHALMIC CONDITIONS” (Medicon Pharmaceuticals, Inc., priority 2017, published 2022).

The test system of one experiment is PGE2. Briefly: PGE2 levels in tears and cornea of rabbits (ELISA). Format: in vivo. To be noted: rabbits with Con A-induced DED, administered once topically, 1 h later. As to the method: FIGS. 9A and 9B illustrate that PS preserves the levels of PGE2 in tears and the cornea. In FIG. 9A, PGE2 levels were determined by ELISA in tears collected on day 7 from naïve rabbits and rabbits with Con A-induced DED treated for 1 week with vehicle or PS. In FIG. 9B, PGE2 levels were further examined. Upper panel: PGE2 levels in the tears of naïve rabbits and rabbits with Con A-induced DED treated for 1 h with PS or ketorolac as in Methods. Lower panel: PGE2 levels in the corneal tissue of naïve rabbits and rabbits with Con A-induced DED treated for 1 week with vehicle or PS or ketorolac or diclofenac. n=8 eyes/group. Values=mean±SEM.
It was determined that the levels of PGE2 in rabbit tears in three groups of rabbits, naïve and those with Con A-induced DED that were treated for 1 week either with PS or vehicle.
In an acute experiment, administered once topically to the eyes of four groups of rabbits with Con A-induced DED was one of the following: vehicle, PS, ketorolac or diclofenac; the latter two are NSAIDs used for the treatment of ocular inflammation and pain. It was determined that the levels of PGE2 in the cornea of these rabbits obtained 1 h later as well as in the corneas of naïve rabbits.
On the technique in general: An ELISA detects its analyte on a solid surface through an enzyme-linked reagent.

Another experiment concerns MMPs. Briefly: MMP activity in the cornea of rabbits. As to conditions: naïve rabbits, topical, 1 h. Format: in vivo. The procedure: FIGS. 8A and 8B illustrate that PS suppresses the levels and activity of MMPs. In FIG. 8A, the human conjunctival cells were treated with PS at 1×IC50 (TNF-α was added to the culture medium at a concentration of 10 ng/ml 2 h after PS. The levels of MMP-1 in the culture medium were determined by ELISA as in Methods (n=3). Values=mean±SEM. In FIG. 8B, two groups of rabbits with Con A-induced DED were treated with vehicle or PS for 1 week as in Methods. Naïve rabbits served as controls. MMP-9 levels in the ILG (top) and the aqueous humor (middle) were determined by ELISA. MMP activity was determined in the cornea of naïve and PS- or ketorolac-treated rabbits with Con A-induced DED as previously. n=8 eyes/group. Values=mean±SEM.
In an acute experiment, naïve rabbits were treated with either PS or ketorolac (both administered topically) for 1 h and determined the activity of MMP in the cornea. This assay determines the activity of MMPs collectively in a given tissue.

Another experiment concerns corneal sensitivity. The experiment in a line: Corneal touch threshold (CTT) assay, Cochet-Bonnet aesthesiometer. Format: in vivo, rabbits. As to conditions: commercially available form, one eye drop. As to the method:
FIGS. 10A and 10B illustrate the ocular analgesic effect of PS. FIG. 10A: One drop of PS 0.5%, vehicle, or lidocaine was applied to one eye of rabbits (n=4/group) and the corneal touch threshold (CTT) was determined using an Eshesiometer. Vehicle had no effect on CTT (not shown; overlaps with the 0 value horizontal line). Values=mean±SEM. FIG. 10B: PS 0.5% in formulations differing in pH as indicated produced different analgesic responses in rabbits. The areas under each curve (AUC), indicted in the figure, that quantify these responses vary by as much as >5 fold. Values are the average of 2; all were within 11% of each other.
FIGS. 11A and 11B illustrates the effect of various concentrations of PS on corneal sensitivity determined by the corneal touch threshold (CTT) assay. The CTT score is expressed as length of filament. Measurements were performed at the indicated time points after a single application of PS as an eye drop. Rabbits with normal or dry eyes were studied (n=6 eyes per group). Dry eyes were induced by Concanavalin A injection as described in the text. The % PS content in each study is shown. The numbers in parentheses indicate the corresponding value of the area under the curve. Values=mean±SEM.
FIGS. 12A and 12B illustrate the effect of various drugs on corneal sensitivity determined by the corneal touch threshold (CTT) assay described herein. Each drug was used in its commercially available form; one eye drop of each was applied. The numbers in parentheses indicate the corresponding value of the area under the curve. Values=mean±SEM.
The analgesic effect of PS was examined on the surface of the eye by determining the corneal touch threshold (CTT) using the Luneau Cochet-Bonnet Aesthesiometer (Western Ophthalmics, Lynwood, Wash.) an adjustable nylon monofilament with a defined diameter, which is applied in different lengths to the center of the cornea.
In this embodiment, the composition of the PS preparation was: 0.5% PS, 18% (2-hydroxypropyl)-β-cyclodextrin (HP-β-CD), 1-4% Tween 80. Preparation Method: HP-β-CD was dissolved in purified water maintained in a 50° C. water bath. PS was added into this solution and kept at 50° C. overnight with stirring at 500 rpm until PS was fully dissolved. Tween 80 was added into the PS HP-β-CD solution, which was then centrifuged at 3000 rpm for 10 min to remove undissolved particles. The supernatant was collected and pH was adjusted to the desired value using a NaOH solution. The analgesic effect of PS was examined as above.
The effect of PS and other compounds on corneal sensitivity was determined in rabbits with normal or dry eyes using the CTT assay as above; DED was induced by Concanavalin A as previously described. The CTT score, expressed as filament length in mm, of normal eyes was 5.56±0.11 mm (mean±SEM for this and subsequent values) and in dry eyes 4.17±0.12 mm; the difference between the two is statistically significant (p<0.0001).

The test system of the next experiment is Con A-induced dry eye. Briefly: Con A-induced dry eye disease (DED) in rabbits: TBUT, tear osmolarity, STT, tear lactoferrin. Format: in vivo, New Zealand White (NZW) rabbits. To be noted: 1 week of treatment, comparison with ophthalmic NSAIDs (FIG. 5). The procedure:
Con A was injected under ultrasound guidance into all the lacrimal glands and the success of the injection was verified by a post-injection ultrasound image (see FIG. 1 and FIG. 2). […] This variation explains why the blind injections recommended in the original method are often unsuccessful. This was confirmed by mixing the Con A solution with methylene blue and tracking its course after injection. In about ⅓ of the cases, Con A ended up outside the gland.
Four parameters of efficacy were evaluated instead of the usual one or two. They include (a) the tear break up time (TBUT), determined using 0.2% fluorescein over the eye and recording the time taken to develop black dots, lines or obvious disruption of the fluorescein film; (b) tear osmolarity, measured using TearLab Osmolarity Test and following the manufacturer's instructions (TearLab Corp., San Diego, Calif.); (3) Schirmer tear test (STT), determined using Schirmer strips (EagleVision, Denville, N.J.) inserted between the cornea and the palpebral conjunctiva at the mid-point of the lower lid and measuring the length of moistened strip at 5 min; and (4) tear lactoferrin levels measured by ELISA kit (MyBiosource, San Diego, Calif.) following the instructions of the manufacturer. All four have been used in clinical practice and correlate with the clinical activity of the disease. The STT is the least reliable and, as result, it is clinically used less than half as frequently as TBUT.
The injections of Con A to the lacrimal glands were repeated weekly as needed. When longer than a 1-week periods of study are needed, repeat injections prolong dry eye for at least 3 weeks, making the originally acute model chronic.
PS Suppresses Con A—Induced Dry Eye in Rabbits. The effect of PS on dry eye was determined in New Zealand White (NZW) rabbits, 2-3 kg (Charles River Labs, Waltham, Mass.). These rabbits were housed singly in rooms with strict temperature (70±5° F.) and humidity (45±5%) control and acclimated for at least 2 weeks prior to induction of dry eye by injection of Con A as above. NZW rabbits with Con A-induced dry eye (three sets of injections) were treated with PS formulated as nanoparticles and administered topically as eye drops 3×/day for 21 days, starting on the day of Con A injection. […] Similar results were obtained on days 5 and 14 (data not shown). […]
The efficacy of lower concentrations of PS. The efficacy of lower concentrations of PS, 0.1% and 0.2% in DED, was also evaluated. The same animal model (rabbits with Concanavalin A-induced DED) was used. The same methodology described herein was followed, except that PS was administered as two eye drops per eye (˜25 μL each) four times a day. PS was formulated in: 10% (2-hydroxypropyl)-β-cyclodextrin, 4% Tween 80, 2.5% Vitamin E TPGS, 1.4% polyvinyl alcohol (13,000-26,000 molecular weight), 0.001% polyquad, as described herein. The Table below summarizes the corresponding findings: […]

As to `O=C(c1ccccc1)c1ccc2n1CCC2C(=O)O` (stereo not shown) [ketorolac, reference compound], the “PGE2 levels in the cornea” value with PGE2 is “suppressed nearly completely”. Also, the “suppression of the activity of MMPs in the cornea” value in the experiment on MMPs is reported as “failed to affect”. Also, in the experiment on corneal sensitivity, the “effect on corneal sensitivity (CTT), dry eyes” value is “no analgesic effect” and the “effect on corneal sensitivity (CTT), normal eyes” value was “display analgesic efficacy”. For the same compound, in the experiment on Con A-induced dry eye, the STT entry was “failed to improve”, the TBUT entry was “failed to improve” and the osmolarity entry is recorded as “failed to improve”.
